Structures can show the parent of a compound that is named as a salt.
Columns and labels:
PDE4 = test: Inhibition of PDE4 activity ([3H]cAMP hydrolysis, cytosol from human neutrophils); assay type: biochemical; conditions: 0.5 μM cAMP, Motapizone (1 μM) included to suppress PDE3 activity, 15 min at 37° C.
Procedure: Method for Measuring Inhibition of PDE4 Activity
PDE4 activity was determined as described by Thompson et al. (Adv Cycl Nucl Res 10: 69-92, 1979) with some modifications (Bauer and Schwabe, Naunyn-Schmiedeberg's Arch Pharmacol 311: 193-198, 1980). At a final assay volume of 200 μl (96 well microtiter plates) the assay mixture contained 20 mM Tris (pH 7.4), 5 mM MgCl2, 0.5 μM cAMP, [^3H]cAMP (about 30,000 cpm/assay), the test compound and an aliquot of cytosol from human neutrophils which mainly contains PDE4 activity as described by Schudt et al. (Naunyn-Schmiedeberg's Arch Pharmacol 344: 682-690, 1991); the PDE3-specific inhibitor Motapizone (1 μM) was included to suppress PDE3 activity originating from contaminating platelets. Serial dilutions of the compounds were prepared in DMSO and further diluted 1:100 (v/v) in the assays to obtain the desired final concentrations of the inhibitors at a DMSO concentration of 1% (v/v) which by itself only slightly affected PDE4 activity.
After preincubation for 5 min at 37° C., the reaction was started by the addition of substrate (cAMP) and the assays were incubated for further 15 min at 37° C. 50 μl of 0.2 N HCl was added to stop the reaction and the assays were left on ice for about 10 min. Following incubation with 25 μg 5′-nucleotidase (Crotalus atrox snake venom) for 10 min at 37° C., the assays were loaded on QAE Sephadex A-25 (1 ml bed volume). The columns were eluted with 2 ml of 30 mM ammonium formiate (pH 6.0) and the eluate was counted for radioactivity. Results were corrected for blank values (measured in the presence of denatured protein) which were below 5% of total radioactivity. […] The IC50 -values for the compounds according to the invention for the inhibition of the PDE4 activity were determined from the concentration-inhibition curves by nonlinear-regression.
The inhibitory values determined for the compounds according to the invention follow from the following table A, in which the numbers of the compounds correspond to the numbers of the examples.

Row | melting point | SMILES | Inhibition of PDE4 acitivity [measured as -logIC50 (mol/l)] (PDE4)
1 | 66 to 68 °C | CCOc1ccc(C2=NN(C3CCN(C(=O)c4ccncc4)CC3)C(=O)[C@@H]3CC=CC[C@H]23)cc1OCC.Cl | 
2 |  | COc1ccc(C2=NN(C3CCN(C(=O)NC(C)(C)C)CC3)C(=O)[C@H]3CC=CC[C@@H]23)c2c1OC(C)(C)C2 (relative stereo) [compound 9, (cis)-4-[4-(7-Methoxy-2,2-dimethyl-2,3-dihydro-benzofuran-4-yl)-1-oxo-4a,5,8,8a-tetrahydro-1H-phthalazin-2-yl]-piperidine-1-carboxylic acid tert-butylamide] | 10.65
3 | 99 to 101 °C | CCOc1ccc(C2=NN(C3CCN(S(=O)(=O)c4ccc(C)cc4)CC3)C(=O)[C@@H]3CC=CC[C@H]23)cc1OCC [compound 1, (4aS,8aR)-4-(3,4-Diethoxyphenyl)-2-[1-(toluene-4-sulfonyl)-piperidin-4-yl]-4a,5,8,8a-tetrahydro-2H-phthalazin-1-one] | 
4 | 133 to 135 °C | CCOc1ccc(C2=NN(C3CCN(C(=O)CCCC(=O)O)CC3)C(=O)[C@@H]3CC=CC[C@H]23)cc1OCC [compound 4, 5-{4-[(4aS,8aR)-4-(3,4-Diethoxy-phenyl)-1-oxo-4a,5,8,8a-tetrahydro-1H-phthalazin-2-yl]-piperidin-1-yl}-5-oxo-pentanoic acid] | 
5 | 145 to 148 °C | CCOc1ccc(C2=NN(C3CCN(C(=O)NC(C)(C)C)CC3)C(=O)[C@@H]3CC=CC[C@H]23)cc1OCC [compound 6, 4-[(4aS,8aR)-4-(3,4-Diethoxyphenyl)-1-oxo-4a,5,8,8a-tetrahydro-1H-phthalazin-2-yl]-piperidine-1-carboxylic acid tert-butylamide] | 
6 |  | CCOc1ccc(C2=NN(C3CCN(C(=O)Nc4ccccc4)CC3)C(=O)[C@@H]3CC=CC[C@H]23)cc1OCC [compound 7, 4-[(4aS,8aR)-4-(3,4-Diethoxyphenyl)-1-oxo-4a,5,8,8a-tetrahydro-1H-phthalazin-2-yl]-piperidine-1-carboxylic acid phenylamide] | 10.28
7 |  | COc1ccc(C2=NN(C3CCN(C(=O)NC(C)(C)C)CC3)C(=O)[C@@H]3CC=CC[C@H]23)cc1OC [compound 8, 4-[(4aS,8aR)-4-(3,4-Dimethoxyphenyl)-1-oxo-4a,5,8,8a-tetrahydro-1H-phthalazin-2-yl]-piperidine-1-carboxylic acid tert-butylamide] | 10.18
8 |  | COc1ccc(C2=NN(C3CCN(S(=O)(=O)c4cccc5c(N(C)C)cccc45)CC3)C(=O)[C@@H]3CC=CC[C@H]23)cc1OC [compound 10, (4aS,8aR)-4-(3,4-Dimethoxyphenyl)-2-[1-(5-dimethylamino-naphthalene-1-sulfonyl)-piperidin-4-yl]-4a,5,8,8a-tetrahydro-2H-phthalazin-1-one] | 9.57
9 | 196 to 197 °C | COc1ccc(C2=NN(C3CCN(c4ccc([N+](=O)[O-])cc4)CC3)C(=O)[C@@H]3CC=CC[C@H]23)cc1OC [compound 11, (4aS,8aR)-4-(3,4-Dimethoxyphenyl)-2-[1-(4-nitro-phenyl)-piperidin-4-yl]-4a,5,8,8a-tetrahydro-2H-phthalazin-1-one] | 10.34
10 | 196 to 197 °C | COc1ccc(C2=NN(C3CCN(Cc4ccncc4)CC3)C(=O)[C@@H]3CC=CC[C@H]23)cc1OC [compound 12, (4aS,8aR)-4-(3,4-Dimethoxyphenyl)-2-(1-pyridin-4-ylmethyl-piperidin-4-yl)-4a,5,8,8a-tetrahydro-2H-phthalazin-1-one] | 10.79
11 | 184 to 185 °C | COc1ccc(C2=NN(C3CCN(C(=O)N4CCOCC4)CC3)C(=O)[C@@H]3CC=CC[C@H]23)cc1OC [compound 13, (4aS,8aR)-4-(3,4-Dimethoxyphenyl)-2-[1-(morpholine-4-carbonyl)-piperidin-4-yl]-4a,5,8,8a-tetrahydro-2H-phthalazin-1-one] | 10.03
12 | 206 °C (dec.) | COc1ccc(C2=NN(C3CCN(CC(=O)c4cc(Cl)c(N)c(Cl)c4)CC3)C(=O)[C@@H]3CC=CC[C@H]23)cc1OC.Cl [compound 14, (4aS,8aR)-2-{1-[2-(4-Amino-3,5-dichloro-phenyl)-2-oxo-ethyl]-piperidin-4-yl}-4-(3,4-dimethoxy-phenyl)-4a,5,8,8a-tetrahydro-2H-phthalazin-1-one hydrochloride] | 10.33
13 | 219 to 220 °C | COc1ccc(C2=NN(C3CCN(c4ncnc5sccc45)CC3)C(=O)[C@@H]3CC=CC[C@H]23)cc1OC [compound 16, (4aS,8aR)-4-(3,4-Dimethoxyphenyl)-2-(1-thieno[2,3-d]pyrimidin-4-yl-piperidin-4-yl)-4a,5,8,8a-tetrahydro-2H-phthalazin-1-one] | 10.50
14 |  | COc1ccc(C2=NN(C3CCN(c4ncccn4)CC3)C(=O)[C@@H]3CC=CC[C@H]23)cc1OC [compound 17, (4aS,8aR)-4-(3,4-Dimethoxyphenyl)-2-(1-pyrimidin-2-yl-piperidin-4-yl)-4a,5,8,8a-tetrahydro-2H-phthalazin-1-one] | 10.51
15 |  | COc1ccc(C2=NN(C3CCN(CC(=O)N4CCOCC4)CC3)C(=O)[C@@H]3CC=CC[C@H]23)cc1OC.Cl [compound 20, (4aS,8aR)-4-(3,4-Dimethoxyphenyl)-2-[1-(2-morpholin-4-yl-2-oxo-ethyl)-piperidin-4-yl]-4a,5,8,8a-tetrahydro-2H-phthalazin-1-one hydrochloride] | 10.40
16 |  | COc1ccc(C2=NN(C3CCN(CCc4ccccc4)CC3)C(=O)[C@@H]3CC=CC[C@H]23)cc1OC.Cl [compound 21, (4aS,8aR)-4-(3,4-Dimethoxyphenyl)-2-(1-phenethyl-piperidin-4-yl)-4a,5,8,8a-tetrahydro-2H-phthalazin-1-one hydrochloride] | 9.69
17 |  | CCOc1ccc(C2=NN(C3CCN(C(=O)N4CCOCC4)CC3)C(=O)[C@@H]3CC=CC[C@H]23)cc1OCC [compound 22, (4aS,8aR)-4-(3,4-Diethoxyphenyl)-2-[1-(morpholine-4-carbonyl)-piperidin-4-yl]-4a,5,8,8a-tetrahydro-2H-phthalazin-1-one] | 9.37
18 |  | COc1ccc(C2=NN(C3CCN(Cc4cccnc4)CC3)C(=O)[C@@H]3CC=CC[C@H]23)cc1OC.Cl.Cl [compound 23, (4aS,8aR)-4-(3,4-Dimethoxyphenyl)-2-(1-pyridin-3-ylmethyl-piperidin-4-yl)-4a,5,8,8a-tetrahydro-2H-phthalazin-1-one dihydrochloride] | 10.80
19 |  | CCOc1ccc(C2=NN(C3CCN(C(=O)CN4CCOCC4)CC3)C(=O)[C@@H]3CC=CC[C@H]23)cc1OCC.Cl [compound 25, (4aS,8aR)-4-(3,4-Diethoxyphenyl)-2-[1-(2-morpholin-4-yl-ethanoyl)-piperidin-4yl]-4a,5,8,8a-tetrahydro-2H-phthalazin-1-one hydrochloride] | 10.19
20 |  | COc1ccc(C2=NN(C3CCN(CC(=O)NC(C)C)CC3)C(=O)C3CC=CCC23)cc1OC [compound 27, 2-{4-[(4aS,8aR)-4-(3,4-Dimethoxyphenyl)-1-oxo-4a,5,8,8a-tetrahydro-1H-phthalazin-2-yl]-piperidin-1-yl}-2H-isopropyl-acetamide] | 10.37
21 |  | COc1ccc(C2=NN(C3CCN(Cc4ccc(-c5csnn5)cc4)CC3)C(=O)[C@@H]3CC=CC[C@H]23)cc1OC.Cl.Cl [compound 28, (4aS,8aR)-4-(3,4-Dimethoxyphenyl)-2-[1-(4-1,2,3-thiadiazol-4-yl-benzyl)-piperidin-4-yl]-4a,5,8,8a-tetrahydro-2H-phthalazin-1-one dihydrochloride] | 10.24
22 |  | CCN1CCN(C(=O)N2CCC(N3N=C(c4ccc(OC)c(OC)c4)[C@H]4CC=CC[C@H]4C3=O)CC2)C(=O)C1=O [compound 29, 1-(1-{4-[(4aS,8aR)-4-(3,4-Dimethoxyphenyl)-1-oxo-4a,5,8,8a-tetrahydro-1H-phthalazin-2-yl]-piperidin-1-yl}-methanoyl)-4-ethyl-piperazine-2,3-dione] | 10.87
23 |  | COc1ccc(C2=NN(C3CCN(CC(N)=O)CC3)C(=O)C3CC=CCC23)cc1OC [compound 31, 2-{4-[(4aS,8aR)-4-(3,4-Dimethoxyphenyl)-1-oxo-4a,5,8,8a-tetrahydro-1H-phthalazin-2-yl]-piperidin-1-yl}-2H-acetamide hydrochloride] | 9.20

Source: patent US7531540B2, “Phthalazinone-piperidino-derivatives as PDE4 inhibitors” (Nycomed GmbH, priority 2001, dated 2009)
